Data reported in US4657897A, “N^6 -substituted adenosines for treating pain” (Warner-Lambert Company, priority 1985, dated 1987).

Columns and labels:
rat heart = experiment: Coronary blood flow (PCS2A), isolated perfused rat heart; design: species or system rat (male); conditions: read-out: effect on heart rate (HR)
Procedure: Male rats (400-600 gms) are pretreated with Na heparin 2000 units and anesthetized with Na pentobarbital (50 mg/kg) administered intraperitoneally. Once anesthetized, the rat heart is rapidly excised, the ascending aorta fitted to the aortic perfusion cannula, and secured with a ligature. The coronary arteries are perfused initially at a rate of about 15 ml/min for two to three minutes, afterwhich they are perfused at constant pressure of 70 mm Hg and temperature of 37° C. The electrocardiogram (ECG) is recorded using two platinum electrodes positioned at the base and apex of the left ventricle. A second heart is excised, cannulated, and perfused by the same method outlined above. Both hearts are tested in parallel. The standard physiological salt solution (PSS) is a modified Krebs-Hanseleit bicarbonate buffer of the following composition in mM concentration: NaCl, 127; NaHCO3, 25; dextrose, 5.5; Na Pyruvate, 2.0; KCl, 4.7; MgSO4, 1.1; KH 2PO4, 1.2; CaCl2.2H2 O, 2.5; CaNa2 EDTA, 0.05.
A 30-minute stabilization period is observed before starting the test protocol.
The microprocessor control system is a servo mechanism which permits coronary perfusion pressure (CPP) and drug concentration to be maintained constant independent of changes in coronary flow. The level at which CPP and drug concentration are maintained can be changed by commands communicated through the microprocessor keyboard. Dose-response curves are carried out by perfusing concentrated drug solution (DC) at rates proportional to total coronary flow (CFT). Drug concentrations are increased by proportionate increases in the rate of DC infusion over CFT via the microprocessor keyboard. The proportional flow rates for DC:CFT is about 0.0002:1 at the low end and 0.02:1 at the high end of the dose-response curve. Dose-response curves encompassing at least two log doses are carried out by preparing two DCs with a concentration difference of 1:100. Following the first dose range of two log doses, the DC are switched, proportional pumping rate adjusted, and the dose-responsecurve continued for another two log doses. The standard dose-response curve is carried out in one-half log dose increments starting at a subthreshold dose and ending at a dose which produces near maximal response in activity. Standard reference compounds are tested over the range of 10^-9 to 10^-6 M.
Measurements are for heart rate (HR) and coronary flow (CF). Units are: HR, beats/minute (bpm) and CF, milliliters/minute (ml/min). HR is calculated from the ECG strip chart recording and CF is calculated by recording analog outputs from pumps 1 and 2. Outputs from pump #1=CFT and the output from pump #2=CF for heart B (CFB). CF for heart A (CFA) is calculated (CFT -CFB =CFA).

adenosine A2 receptor = molecular target: T1, adenosine A2 receptor (Rattus norvegicus, UniProt P30543); experiment: Adenosine Receptor Binding--A2 Receptor Affinity (RBA2), [3H]NECA binding, rat striatal membranes; design: species or system rat (mixed sex Sprague-Dawley; male Long-Evans); conditions: 4 nM [3H]NECA, 50 nM N6-cyclopentyladenosine, 25° C., 60 min
T1 construct: 5 mg original tissue weight of rat weight of rat striatal membranes; tissue Pel-Freez (Rogers, Ark.) for the brains; host or cells: rat striatum (Sprague-Dawley; Long-Evans gave essentially identical results), membranes
T1 sequence (P30543 whole entry): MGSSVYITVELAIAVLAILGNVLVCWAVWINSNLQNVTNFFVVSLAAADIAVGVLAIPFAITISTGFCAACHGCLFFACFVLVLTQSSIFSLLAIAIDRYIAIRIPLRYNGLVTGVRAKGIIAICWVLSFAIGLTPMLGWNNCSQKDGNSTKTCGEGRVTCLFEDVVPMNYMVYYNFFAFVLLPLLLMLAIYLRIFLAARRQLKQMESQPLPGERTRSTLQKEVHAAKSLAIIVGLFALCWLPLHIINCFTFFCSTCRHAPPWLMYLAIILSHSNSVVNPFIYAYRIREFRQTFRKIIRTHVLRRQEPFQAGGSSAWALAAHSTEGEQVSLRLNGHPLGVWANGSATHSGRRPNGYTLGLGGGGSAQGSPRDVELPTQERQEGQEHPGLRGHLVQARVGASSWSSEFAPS
Procedure: Adenosine Receptor Binding--A2 Receptor Affinity (RBA2)
Brains from 200-500 g mixed sex Sprague-Dawley rats were purchased from Pel-Freez (Rogers, Ark.). […] Brains were thawed and then kept on ice while the striata were dissected out. Striata were disrupted in 10 vol of ice-cold 50 mM Tris.HCl (pH 7.7 at 25° C., pH 8.26 at 5° C.) (Tris) for 30 seconds in a Polytron PT-10 (Brinkmann) at setting 5. The suspension was centrifuged at 50,000 xg for ten minutes, the supernatant discarded, the pellet resuspended in 10 vol ice-cold Tris as above, recentrifuged, resuspended at 1 g/5 ml, and stored in plastic vials at -70° C. […] When needed, tissue was thawed at room temperature, disrupted in a Polytron, and kept on ice until used.
Test compounds were dissolved at 10 mM in dimethylsulfoxide on the same day as the experiment, and diluted in dimethylsulfoxide to 100× the final incubation concentration. […] [^3 H]NECA was diluted to 40 nM in Tris. […] After all additions, the rack of tubes was vortexed, and the tubes were then incubated for 60 min at 25° C. in a shaking water bath. The rack of tubes was vortexed an additional time halfway through the incubation.
Incubations were terminated by filtration through 2.4 cm GF/B filters under reduced pressure. Each tube was filtered as follows: the contents of the tube were poured onto the filter, 4 ml of ice-cold Tris were added to the tube and the contents poured onto the filter, and the filter was washed twice with 4 ml of ice-cold Tris. The filtration was complete in about twelve seconds. Filters were put in scintillation vials, 8 ml of Formula 947 scintillation fluid added, and the vials left overnight, shaken, and counted in a liquid scintillation counter at 40% efficiency.
The IC50 was calculated by weighted nonlinear least squares curve-fitting to the mass-action equation. [formula] where Y is cpm bound
T is cpm total binding without drug
S is cpm specific binding without drug
D is the concentration of drug
K is the IC50 of the drug
Weighting factors were calculated under the assumption that the standard deviation was proportional to the predicted value of Y. Nonspecific binding was treated as a very large (infinite) concentration of drug in the computer analysis.

IC50 (adenosine A2 receptor): 390 nM
Compound: OC[C@H]1O[C@@H](n2cnc3c(NCCC(c4ccccc4)c4ccccc4)ncnc32)[C@H](O)[C@@H]1O [Example 2, N^6-(3,3-Diphenylpropyl)adenosine]
activation at 1 µM (rat heart; 1 × 10^-6 Molar): -19% | activation at 0.1 µM (rat heart; 1 × 10^-7 Molar): -5% | activation at 0.01 µM (rat heart; 1 × 10^-8 Molar): -2% | activation at 3 µM (rat heart; 3 × 10^-6 Molar): -34%
